Measured values as given in the NIST ThermoML archive (doi:10.1021/acs.jced.7b00464).

Experiment: mn = molality of the nth substance listed, in mol/kg
Conditions: 101.3 kPa, Liquid; for speed of sound: Frequency=3 MHz, Single path-length method; for mass density: Vibrating tube method

CCCCn1cc[n+](C)c1.[Br-] [1-butyl-3-methylimidazolium bromide] + O
Conditions | mass density, 293.15 K [kg/m3] | mass density, 298.15 K [kg/m3] | mass density, 303.15 K [kg/m3] | mass density, 308.15 K [kg/m3] | speed of sound, 293.15 K [m/s] | speed of sound, 298.15 K [m/s] | speed of sound, 303.15 K [m/s] | speed of sound, 308.15 K [m/s]
m1 = 0.1009 | 1003.27 | 1002.03 | 1000.58 | 998.918 | 1493.5 | 1506.5 | 1517.9 | 1527.7
m1 = 0.2003 | 1008.11 | 1006.83 | 1005.32 | 1003.62 | 1503.6 | 1515.8 | 1526.2 | 1535.2
m1 = 0.2985 | 1012.68 | 1011.33 | 1009.77 | 1008 | 1512.9 | 1524.5 | 1534.1 | 1542.4
m1 = 0.4006 | 1017.54 | 1016.13 | 1014.5 | 1012.7 | 1522.6 | 1533.1 | 1542 | 1549.4

CCCCn1cc[n+](C)c1.[Cl-] [1-butyl-3-methylimidazolium chloride] + O
Conditions | mass density, 293.15 K [kg/m3] | mass density, 298.15 K [kg/m3] | mass density, 303.15 K [kg/m3] | mass density, 308.15 K [kg/m3] | speed of sound, 293.15 K [m/s] | speed of sound, 298.15 K [m/s] | speed of sound, 303.15 K [m/s] | speed of sound, 308.15 K [m/s]
m1 = 0.101 | 999.535 | 998.308 | 996.883 | 995.222 | 1496.7 | 1509.8 | 1521.1 | 1530.8
m1 = 0.1997 | 1000.82 | 999.565 | 998.065 | 996.342 | 1510.4 | 1522.7 | 1533 | 1542
m1 = 0.3007 | 1002.1 | 1000.79 | 999.244 | 997.484 | 1523.6 | 1534.7 | 1544.3 | 1552.7
m1 = 0.4004 | 1003.37 | 1002 | 1000.4 | 998.586 | 1536.1 | 1546.5 | 1555.3 | 1562.6
